Holding throughout (assay type): cell-based
Assay [1] deals with T1, CDK4-NanoLuc fusion with CCND1 in 293T or 293 cells (Homo sapiens, UniProt P11802).
T1 construct: host or cells: 293T (ATCC CRL-3216) or 293 (ATCC CRL-1573)
The experiment in a line: NanoBRET Target Engagement (TE) Intracellular Kinase Assay, CDK4/CCND1. The following applies: NanoBRET TE intracellular kinase assay, 2-hour incubation, read-out: NanoBRET-CDK4/D1 IC50. (In general: Bioluminescence resonance energy transfer reports proximity on the nanometre scale.)

Assay [2] concerns Phospho-Rb Ser807/811 in OVCAR3 cells. The experiment in a line: OVCAR3 Phospho-Rb Ser807/811 HTRF assay. The following applies: Homo sapiens, read-out: pRb-OVCAR3 IC50. On the procedure:
Cells were trypsinized and resuspended in 1 mM hydroxyurea (Sigma; H8627), 90% RPMI and 10% fetal bovine serum. […] Dose response curve normalized to DMSO control was plotted using four-parameter logistic model for IC50 calculation.
On the technique in general: In TR-FRET formats the signal depends on donor and acceptor labels being close together.

The target in assay [3] is T2, CDK2-NanoLuc fusion with CCNE1 in 293T or 293 cells (Homo sapiens, UniProt P24941).
T2 construct: host or cells: 293T (ATCC CRL-3216) or 293 (ATCC CRL-1573)
The experiment in a line: NanoBRET Target Engagement (TE) Intracellular Kinase Assay, CDK2/CCNE1. As to conditions: NanoBRET TE intracellular kinase assay, 2-hour incubation, read-out: NanoBRET-CDK2/E1 IC50.

The target of assay [4] is T3, CDK1-NanoLuc fusion with CCNB1 in 293T or 293 cells (Homo sapiens, UniProt P06493).
T3 construct: host or cells: 293T (ATCC CRL-3216) or 293 (ATCC CRL-1573)
The experiment in a line: NanoBRET Target Engagement (TE) Intracellular Kinase Assay, CDK1/CCNB1. The following applies: NanoBRET TE intracellular kinase assay, 2-hour incubation, read-out: NanoBRET-CDK1/B1 IC50. On the procedure: Inhibitory effects of compounds were measured in NanoBRET TE Intracellular Kinase Assay. 293T (ATCC; CRL-3216) or 293 (ATCC; CRL-1573) cell lines were maintained in 90% DMEM and 10% fetal bovine serum at 37° C., 5% CO2, and 95% relative humidity. Cells were trypsinized and resuspended in assay media (99% Opti-MEM I Reduced Serum Medium, no phenol red, and 1% fetal bovine serum). Cells were co-transfected with 1 μg/mL of CDK-NanoLuc Fusion Vector (Promega; NV2701 for CDK1, NV2781 for CDK2, NV2811 for CDK4, NV2841 for CDK6) and 1 μg/mL of the corresponding Cyclin Expression Vector (Promega; NV2601 for CCNB1, NV2641 for CCNE1, NV2621 for CCND1, NV2631 for CCND3) using FuGENE HD Transfection Reagent (Promega; E2311). 40 uL/well of cells with transfection mixture were seeded in 384-well plates at 1.25×10^5 to 2×10^5 cells/mL and incubated for 24 hours at 37° C., 5% CO2, and 95% relative humidity. On the next day, 100 nL of 100 μM NanoBRET Tracer K-10 (Promega; N2640) and 40 nL of 1000× test compounds prepared in DMSO were added to the cells in each well of 384-well plates for a 2-hour incubation at 37° C., 5% CO2, and 95% relative humidity. 20 uL/well of 3× Intracellular TE Nano-Glo Substrate/Inhibitor (Promega; N2162) were added to 384-well plates and incubated for 3 minutes at room temperature. NanoBRET signals (donor emission wavelength at 450 nm, acceptor emission wavelength at 610 nm) were measured using Envision plate reader (PerkinElmer). NanoBRET ratio was calculated by: BRET Ratio=raw signal for acceptor/raw signal for donor. Dose response curve normalized to DMSO control was plotted using four-parameter logistic model for IC50 calculation.

[5] abbreviates: OVCAR-3, 1 h, OVCAR3 cells, Phospho-Rb Ser807/811 HTRF, 1 hour incubation.
Setting [6] is: OVCAR-3, OVCAR3 cells, Phospho-Rb Ser807/811 HTRF, 1 hour incubation.

pIC50: −log10 of the molar value. Where two headings read alike, the source gives them in different places. Bounds are passed on as bounds.

T1 sequence (P11802 whole entry, the tested form may be a part): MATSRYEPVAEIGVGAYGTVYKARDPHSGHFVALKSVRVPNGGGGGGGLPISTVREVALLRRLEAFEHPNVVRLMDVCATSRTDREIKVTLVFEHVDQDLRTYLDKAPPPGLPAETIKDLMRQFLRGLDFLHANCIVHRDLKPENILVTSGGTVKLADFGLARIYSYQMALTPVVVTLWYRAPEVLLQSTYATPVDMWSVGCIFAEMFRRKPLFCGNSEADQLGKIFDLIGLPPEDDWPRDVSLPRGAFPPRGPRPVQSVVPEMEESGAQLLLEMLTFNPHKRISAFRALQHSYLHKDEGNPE
T1 sequence (P24385 whole entry partner, the tested form may be a part): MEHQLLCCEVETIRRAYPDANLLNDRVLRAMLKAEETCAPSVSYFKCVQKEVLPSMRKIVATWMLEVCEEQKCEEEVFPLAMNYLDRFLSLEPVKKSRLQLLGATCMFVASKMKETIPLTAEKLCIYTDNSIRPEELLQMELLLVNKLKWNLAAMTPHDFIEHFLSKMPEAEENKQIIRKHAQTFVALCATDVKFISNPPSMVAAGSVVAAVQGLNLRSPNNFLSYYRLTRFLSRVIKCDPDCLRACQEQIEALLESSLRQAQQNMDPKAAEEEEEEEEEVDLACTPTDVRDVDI
T3 sequence (P06493 whole entry, the tested form may be a part): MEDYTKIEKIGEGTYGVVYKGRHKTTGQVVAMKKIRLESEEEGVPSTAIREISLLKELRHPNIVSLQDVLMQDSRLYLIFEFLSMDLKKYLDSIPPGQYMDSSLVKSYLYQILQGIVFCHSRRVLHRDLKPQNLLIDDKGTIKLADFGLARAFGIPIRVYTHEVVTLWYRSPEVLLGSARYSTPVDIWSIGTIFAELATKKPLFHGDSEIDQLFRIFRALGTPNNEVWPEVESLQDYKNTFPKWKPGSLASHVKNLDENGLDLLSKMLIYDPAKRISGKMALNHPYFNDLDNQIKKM
T3 sequence (P14635 whole entry partner, the tested form may be a part): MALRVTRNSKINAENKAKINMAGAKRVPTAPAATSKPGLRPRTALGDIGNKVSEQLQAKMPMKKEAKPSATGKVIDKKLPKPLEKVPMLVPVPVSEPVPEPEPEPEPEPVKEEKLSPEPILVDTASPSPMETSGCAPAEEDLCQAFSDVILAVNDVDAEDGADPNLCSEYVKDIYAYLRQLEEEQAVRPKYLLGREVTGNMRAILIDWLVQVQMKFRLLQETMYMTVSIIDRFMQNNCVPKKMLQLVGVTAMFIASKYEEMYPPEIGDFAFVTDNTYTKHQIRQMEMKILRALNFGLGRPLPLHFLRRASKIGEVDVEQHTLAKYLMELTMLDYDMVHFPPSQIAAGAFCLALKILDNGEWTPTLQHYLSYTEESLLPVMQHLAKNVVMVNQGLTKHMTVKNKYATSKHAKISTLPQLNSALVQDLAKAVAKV

As to `CC(C)NC(=O)O[C@@H]1CC[C@H](c2cc(NC(=O)[C@H]3C[C@H](Oc4cccc(O)c4C=O)C3)n[nH]2)C1` (single isomer, unassigned) [Compound 1], the pIC50 in assay [1] was 5.74; in assay [2] (setting [5]) it was 6.56; in assay [3], 8.10; in assay [4] it was 7.20.

In the case of `CC(C)NC(=O)O[C@@H]1CC[C@H](c2cc(NC(=O)[C@H]3C[C@@H]3c3cccc(O)c3C=O)n[nH]2)C1` (single isomer, unassigned) [Compound 10], the pIC50 in assay [1] was 6.00; in assay [2] (setting [5]) it was 7.17; in assay [3], 8.22; in assay [4] it was 7.95.

`COc1cc(O)c(C=O)c([C@H]2C[C@@H]2C(=O)Nc2cc([C@H]3CC[C@@H](OC(=O)NC(C)C)C3)[nH]n2)c1` (single isomer, unassigned) [Compound 90]: the pIC50 in assay [1] was 5.29; in assay [2] (setting [5]) it was 6.12; in assay [3], 7.36; in assay [4] it was 6.67.

For `CC(C)NC(=O)O[C@@H]1CC[C@H](c2cc(NC(=O)[C@H]3C[C@@H](Oc4cccc(O)c4C=O)C3)n[nH]2)C1` (single isomer, unassigned) [Compound 94], the pIC50 is 5.88 in assay [1], 5.84 in assay [2] (setting [5]), 8.01 in assay [3] and 6.78 in assay [4].

Consider `CC(C)NC(=O)O[C@@H]1CC[C@H](c2cc(NC(=O)C3C[C@H]3c3cccc(O)c3C=O)n[nH]2)C1` (stereo in doubt) [Compound 9, (1R,3S)-3-{5-[(1R,2R)-2-(2-formyl-3-hydroxyphenyl)cyclopropaneamido]-2H-pyrazol-3-yl}cyclopentyl N-isopropylcarbamate], for which the pIC50 in assay [1] was 5.33; in assay [2] (setting [5]), 6.35; in assay [3], 7.53; in assay [4] it was 7.30.

On to `COCC1(NC(=O)O[C@@H]2CC[C@H](c3cc(NC(=O)COc4cc(OC)cc(O)c4C=O)n[nH]3)C2)CCC1` (stereo in doubt) [Compound 198], for which the pIC50 in assay [1] is 5.49; in assay [2] (setting [5]), 7.41; in assay [3], 8.72; in assay [4], 8.15.

As to `CC(C)NC(=O)O[C@@H]1CC[C@H](c2cc(NC(=O)c3ccc(C=O)c(O)c3)n[nH]2)C1` [Compound 2, (1R,3S)-3-[5-(4-formyl-3-hydroxybenzamido)-2H-pyrazol-3-yl]cyclopentyl N-isopropylcarbamate; trifluoroacetic acid], the pIC50 is 7.05 in assay [1], 7.17 in assay [2] (setting [5]), 8.42 in assay [3] and 8.46 in assay [4].

For `CC(C)NC(=O)O[C@@H]1CC[C@H](c2cc(NC(=O)c3ccc(O)c(C=O)c3)n[nH]2)C1` [Compound 3, (1R,3S)-3-(3-(3-formyl-4-hydroxybenzamido)-1H-pyrazol-5-yl)cyclopentyl isopropylcarbamate trifluoroacetic acid], the pIC50 in assay [1] was 6.59; in assay [2] (setting [5]), 6.89; in assay [3], 8.02; in assay [4] it was 7.48.

As for `CC(C)NC(=O)O[C@@H]1CC[C@H](c2cc(NC(=O)Cc3ccc(C=O)c(O)c3)n[nH]2)C1` [Compound 4, (1R,3S)-3-{5-[2-(4-formyl-3-hydroxyphenyl)acetamido]-2H-pyrazol-3-yl}cyclopentyl N-isopropylcarbamate], the pIC50 in assay [1] is 8.16; in assay [2] (setting [5]) it was 7.16; in assay [3], 8.26; in assay [4] it was 8.15.

Consider `CC(C)NC(=O)O[C@@H]1CC[C@H](c2cc(NC(=O)Cc3ccc(O)c(C=O)c3)n[nH]2)C1` [Compound 5, (1R,3S)-3-{5-[2-(3-formyl-4-hydroxyphenyl)acetamido]-2H-pyrazol-3-yl}cyclopentyl N-isopropylcarbamate], for which the pIC50 in assay [1] was 7.28; in assay [2] (OVCAR-3, 1 h), 6.73; in assay [3] it was 8.18; in assay [4] it was 8.26.

On to `CC(C)NC(=O)O[C@@H]1CC[C@H](c2cc(NC(=O)CCc3ccc(O)c(C=O)c3)n[nH]2)C1` [Compound 6, (1R,3S)-3-{5-[3-(3-formyl-4-hydroxyphenyl)propan-amido]-2H-pyrazol-3-yl}cyclopentyl N-isopropylcarbamate; trifluoroacetic acid], for which the pIC50 in assay [1] is 6.40; in assay [2] (setting [6]) it was 6.21; in assay [3] it was 7.90; in assay [4], 6.95.

Regarding `CC(C)NC(=O)O[C@@H]1CC[C@H](c2cc(NC(=O)CCc3cccc(O)c3C=O)n[nH]2)C1` [Compound 7, (1R,3S)-3-(3-(3-(2-formyl-3-hydroxyphenyl)propanamido)-1H-pyrazol-5-yl)cyclopentyl isopropylcarbamate trifuoroacetic acid], the pIC50 in assay [1] was 5.73; in assay [2] (OVCAR-3, 1 h) it was 5.82; in assay [3] it was 7.94; in assay [4], 6.56.

`CC(C)NC(=O)O[C@@H]1CC[C@H](c2cc(NC(=O)c3cnn(-c4cccc(O)c4C=O)c3)n[nH]2)C1` [Compound 8, (1R,3S)-3-{5-[1-(2-formyl-3-hydroxyphenyl)pyrazole-4-amido]-2H-pyrazol-3-yl}cyclopentyl N-isopropylcarbamate; trifluoroacetic acid]: the pIC50 is 5.26 in assay [1], 6.06 in assay [2] (setting [6]), 7.60 in assay [3] and 7.13 in assay [4].

As to `CC(C)NC(=O)O[C@@H]1CC[C@H](c2cc(NC(=O)CCCc3cccc(O)c3C=O)n[nH]2)C1` [Compound 12, 1R,3S)-3-(3-(4-(2-formyl-3-hydroxyphenyl)butanamido)-1H-pyrazol-5-yl)cyclopentyl isopropylcarbamate], the pIC50 is 5.84 in assay [1], 7.95 in assay [3] and 6.90 in assay [4].

`Cc1cc(C(=O)Nc2cc([C@H]3CC[C@@H](OC(=O)NC(C)C)C3)[nH]n2)cc(C=O)c1O` [Compound 15, (1R,3S)-3-(3-(3-formyl-4-hydroxy-5-methylbenzamido)-1H-pyrazol-5-yl)cyclopentyl isopropylcarbamate trifluoroacetic acid]: the pIC50 in assay [1] is 5.74; in assay [2] (setting [5]) it was 6.95; in assay [3], 8.58; in assay [4], 7.60.

Regarding `CC(C)NC(=O)O[C@@H]1CC[C@H](c2cc(NC(=O)c3cc(Oc4cccc(O)c4C=O)nn3C)n[nH]2)C1` [Compound 19, (1R,3S)-3-{5-[5-(2-formyl-3-hydroxyphenoxy)-2-methylpyrazole-3-amido]-2H-pyrazol-3-yl}cyclopentyl N-isopropylcarbamate], the pIC50 in assay [1] was 5.62; in assay [2] (setting [5]), 6.03; in assay [3], 7.79; in assay [4], 7.11.

On to `CC(C)NC(=O)O[C@@H]1CC[C@H](c2cc(NC(=O)[C@@H]3Cc4ccc(O)c(C=O)c4C3)n[nH]2)C1` [Compound 26, (1R,3S)-3-{5-[(2R)-4-formyl-5-hydroxy-2,3-dihydro-1H-indene-2-amido]-2H-pyrazol-3-yl}cyclopentyl N-isopropylcarbamate], for which the pIC50 was 7.02 in assay [2] (setting [5]), 8.56 in assay [3] and 7.66 in assay [4].

Turning to `CC(C)NC(=O)O[C@@H]1CC[C@H](c2cc(NC(=O)[C@@H]3Cc4ccc(O)c(C=O)c4C3)n[nH]2)C1` [Compound 256], the pIC50 in assay [2] (setting [5]) is 7.16; in assay [3], 8.42; in assay [4] it was 7.69.

Take `CC(C)NC(=O)O[C@@H]1CC[C@H](c2cc(NC(=O)CNc3cccc(O)c3C=O)n[nH]2)C1` [Compound 259]: the pIC50 in assay [1] was less than 5.00; in assay [3], 6.19; in assay [4], 5.09.

For the origin of these results see patent US20250289789A1, “REVERSIBLE LYSINE COVALENT MODIFIERS OF CDK2 AND USES THEREOF” (Terremoto Biosciences, Inc., priority 2023, published 2025).
